Experimental findings from patent publication US11396497B2, “Proteasome inhibitors” (New Mexico Tech University Research Park Corporation, priority 2018, dated 2022) are described below.

One data set concerns MCF7 cells. Description: MTT assay cytotoxicity MCF7. The note with it: Homo sapiens. (Formazan colour is commonly taken as a measure of viable cells.)
In data set [1] the target is T1, trypsin-like activity of the 26S proteasome (Homo sapiens, UniProt Q99436).
T1 construct: endogenous in cells; host or cells: Jurkat (ATCC TIB-152, E6-1 clone) cell lysate
T1 sequence (Q99436 44-277): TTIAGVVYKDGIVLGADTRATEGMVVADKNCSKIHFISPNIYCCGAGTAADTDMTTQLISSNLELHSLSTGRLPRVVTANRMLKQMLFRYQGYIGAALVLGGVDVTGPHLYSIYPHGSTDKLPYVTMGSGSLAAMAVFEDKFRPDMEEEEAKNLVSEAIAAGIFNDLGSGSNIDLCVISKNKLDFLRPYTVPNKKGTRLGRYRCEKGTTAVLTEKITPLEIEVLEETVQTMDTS
Put plainly: Proteasome assay, trypsin-like (T-L) activity, SUC-RLR-AMC, Jurkat cell lysate. The settings on record: Table 2, P1 analogues; ± S.D.; read-out: Proteasome Inhibition T-L-like IC50. Type of data set: biochemical. On the procedure: (§1) The lysate was stored at −80° C. until the sample was used for the proteasome assay.
(§2) The compounds were diluted with lysis buffer; 10 μL of the compound-containing solution was added to the test wells at ten times the final concentration. […] The results are reported as the average of at least 3 technical replicates of IC50 values for proteasome inhibition.

Data set [2] concerns the target T2, ChT-L activity of 26S proteasomes in intact MCF-7 cells (Homo sapiens, UniProt P28074).
T2 construct: endogenous in cells; host or cells: MCF7 cells (treated intact, then lysed)
T2 sequence (P28074 60-263): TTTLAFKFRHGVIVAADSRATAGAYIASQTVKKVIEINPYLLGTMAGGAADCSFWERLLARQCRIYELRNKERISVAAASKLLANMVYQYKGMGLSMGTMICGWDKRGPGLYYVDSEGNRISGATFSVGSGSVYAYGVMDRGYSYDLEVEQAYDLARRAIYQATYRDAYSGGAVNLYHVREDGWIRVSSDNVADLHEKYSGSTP
Put plainly: Cell infiltration of PIs: proteasome inhibition in intact MCF7 cells. Type of data set: cell-based. The note with it: intact MCF-7 cells treated, washed, lysed. The procedure: 100 μL MCF7 cells at a concentration of 500,000 cells/mL were added to a 96 well microtiter plate and incubated overnight at 37° C. and 5% CO2 to allow cells to adhere at 100% confluency. The cells were treated and then incubated for at 37° C. and 5% CO2 for 1 hour as a standard time to allow for drug infiltration. […] The plate was rocked on ice for 1 hr and then 90 μL of cell lysate was transferred to a black 96 well microtiter plate. 10 μL of lysis buffer was added to the top of all wells containing treated cells and one set of control wells. 10 μL of 1 mM of compound 8 was added to the second set of control wells as a positive control for proteasome inhibition. The plate was then incubated at 37° C. for 15 minutes to allow for control drug binding. Chymotrypsin-like activity was then measured by adding 10 μL of 100 μM Suc-LLVY-AMC in lysis buffer to each well and then incubating for 1 h at 37° C. […] Standard deviation for cell infiltration was calculated by propagating the error from the two IC50 values.
The difference between proteasome inhibition within intact versus lysed cells was evaluated as a representative measure of PIs ability to infiltrate cells and access intracellular proteasomes. […] Assays were performed in biological triplicate, and the data points are reported with the corresponding standard deviations. […]

For another data set, the system named is MDA-MB-231 cells. Description: MTT assay cytotoxicity MDA-MB-231. The settings on record: Homo sapiens.
The target of data set [3] is T3, ChT-L activity of the 26S proteasome (Homo sapiens, UniProt P28074).
T3 sequence (P28074 60-263): T2 sequence (P28074 60-263)
Put plainly: Proteasome inhibition after pre-incubation with newborn bovine serum. Type of data set: in vitro ADME. The note with it: pre-incubation 1 hour at 37° C. with NBS. The procedure: EDTA chelates divalent metal ions. By including EDTA during the pre-incubation step, EDTA protected compound 8 from being deactivated by NBS, shown by low proteasome activity below 5 nM of compound 8.
The assays were performed in biological triplicate, and the data points are reported with the corresponding standard deviations.

Data set [4] concerns Jurkat cells. Put plainly: Cell cycle assay (flow cytometry). It is filed as cell-based, human. The procedure: Vybrant® DyeCycle™ Orange Stain was used for the cell cycle assay. The amount of fluorescence of DNA was used as a relative measure of a cell's stage in the cell cycle. 500,000 Jurkat cells were added to wells on a 24 well microtiter plate in 1 mL of supplemented RPMI media. The cells were then treated with Compound 1 (TABLE 2). Using the cells treated for 12 and 24 hours, stained DNA fluorescence was measured via flow cytometry. The cells were taken from each well, pelleted briefly, aspirated, resuspended in 300 μL of 2 μL/mL Vybrant® DyeCycle™ Orange Stain, incubated at 37° C. for 15 minutes, and analyzed by flow cytometry. Selecting whole cells based on forward and side scatter, stained DNA fluorescence was excited at 488 nm and measured at an emission wavelength of 585 nm, using amount of fluorescence as a means of distinguishing between populations of cells. Populations were identified as G1 for the peak associated with the lowest amount of fluorescence, S phase for increased fluorescence appearing as a shoulder off of the G1 peak, and G2/M for approximately 2 times the fluorescence as the G1 peak. Measurements were taken in biological triplicate and confirmed in technical triplicate.
For orientation: Flow cytometry measures light scatter and fluorescence of single cells or particles in a stream.

In data set [5] the target is T4, chymotrypsin-like activity of the 26S proteasome (Homo sapiens, UniProt P28074).
T4 construct: endogenous in cells; host or cells: Jurkat (ATCC TIB-152, E6-1 clone) cell lysate
T4 sequence (P28074 60-263): T2 sequence (P28074 60-263)
Description: Proteasome assay, chymotrypsin-like (ChT-L) activity, Suc-LLVY-AMC, Jurkat cell lysate. Type of data set: biochemical. On the procedure: as §1, §2

For data set [6], the system named is Jurkat cells. Description: Apoptosis assay (Annexin V-FITC, flow cytometry). It is filed as cell-based, human. On the procedure: Apoptosis assay: 1 mL of Jurkat cells, at a density of 500,000 cells per milliliter, was added to 12 wells of a 24 well microtiter plate. Cells were treated immediately using a serial dilution of the synthesized proteasome inhibitors, the benzyl ester of Cystargolide B and the belactosin-cystargolide hybrid molecule. 10 μM Paclitaxel and 0.2 μg/mL Doxorubicin hydrochloride were used as positive apoptosis controls and non-treated cells were used as a negative control. The cells were then incubated for 24 h at 37° C. and 5% CO2. The following day, Annexin V-FITC conjugate was used to assay for the expression of phosphatidyl serine on the […] of the cellular membrane. The cells were briefly pelleted, aspirated, and resuspended in 300 μL of a reaction mixture containing 0.2 μL/mL of the Annexin V FITC solution, 2 mM CaCl2 to enable binding, and 2 μg/mL propidium iodide as an indicator of cell permeability. Each sample was incubated at 37° C. for 20 minutes, and then analyzed by flow cytometry. Single, whole cells were selected based on the forward and the side-scatter. With an excitation of 488 nm Annexin V-FITC binding was identified using FL1 533 nm emission. Propidium iodide staining was selected based on FL2 585 nm emission. […] Measurements were taken in biological triplicate for each sample, and the results were confirmed in technical triplicate.

Usually IC50 stands for the concentration needed to halve the response being measured.

Read-outs that look alike come from different tables or passages of the source.

Description for MDA-MB-231 cells: The cells were incubated at 37° C. in a humidified atmosphere with 5% CO2.
100 μL of cells were added to each well of a 96 well microtiter plate at a concentration of 4×10^4 cells/mL and incubated overnight to allow proper adhesion. (RPMI 8226 cells were plated at 4×10^5 cells/mL). The cells were treated with the panel of test compounds at a series of concentrations, along with vehicle control DMSO and untreated cells as controls. After 48 h incubation, 20 μL of MTT reagent (3-(4,5-dimethylthiazol-2-yl)-2,5-diphenyltetrazolium bromide) in PBS (5 mg/mL) was added to each well of the plates. The plate was incubated for 2 h at 37° C. For adherent cell lines, the media was removed from each well of the plate and the resulting formazan crystals dissolved in 100 μL of DMSO. For RPMI 8226 cells, 200 ul of DMF/SDS mix (50% DMF. 10% w/v SDS pH<4) was used to solubilize the formazan crystals. Optical density (OD) at 490 nm was measured using a microplate reader. Cells treated with 1 μM phenyl arsine oxide (PAO) served as a positive cell-killing control. Technical replicates of these assays were performed in biological quadruplicate, and the three best values were used for analysis in order to eliminate outliers. Data presented are the average IC50 value calculated from at least 3 technical replicates with the corresponding standard deviation.

Regarding `CC[C@H](C)[C@@H]1C(=O)O[C@H]1C(=O)N[C@H](C(=O)N[C@H](C(=O)OCc1ccccc1)C(C)C)C(C)C` [Compound 8, Benzyl ((2R,3S)-3-((S)-sec-butyl)-4-oxooxetane-2-carbonyl)-L-valyl-L-valinate], the IC50 in the data set on MCF7 cells (MCF7, 48 h, read-out: Cytotoxicity MCF7 IC50) came out at 1410 ± 687 nM; in the data set with MCF7 cells (MCF7, read-out: Cytotoxicity MCF7 IC50), 1850 ± 261 nM; in data set [1], 1520 ± 788 nM; in the data set on MDA-MB-231 cells (MDA-MB-231, 48 h, read-out: Cytotoxicity MDA-MB-231 IC50), 359 ± 72 nM; in the data set on MDA-MB-231 cells (MDA-MB-231, read-out: Cytotoxicity MDA-MB-231 IC50), 380 ± 18.8 nM; in data set [5], 7.1 ± 2.8 nM. Also, the IC50 in data set [5] (Table 5, ± S.D., read-out: Proteasome Inhib. ChT-L IC50) was found to be 7 ± 0.311 nM. In addition, the “times more active than compound 1, proteasome inhibition in intact cells” value in data set [2] is “approximately 10 times”. The “deactivation by newborn bovine serum” value in data set [3] was “deactivates compound 8”. In the data set on Jurkat cells [4], the cell cycle arrest entry was “cell cycle arrest in the G2/M phase”. Also, in the data set with Jurkat cells [6], the induction of apoptosis entry was “induction of apoptosis”.
